The source of these data is ChEMBL document CHEMBL4251716, “Miuramides A and B, Trisoxazole Macrolides from a Mycale sp. Marine Sponge That Induce a Protrusion Phenotype in Cultured Mammalian Cells” (J Nat Prod, 2018).

The structures appear in SMILES notation. Active and inactive are the calls of the source. The rule behind the calls is not given here.

Common to all, as to assay type: functional, cell-based
The test system of assay [1] is 3Y1 cell line. The assay is described as follows: Cytotoxicity against rat 3Y1 cells after 72 hrs by MTT assay. Conditions: 3Y1, 72 h. On the technique in general: Tetrazolium assays rely on reduction of a dye to a coloured formazan, in cell work by metabolically active cells.
Assay [2] deals with 3Y1 cell line. The assay is described as follows: Induction of morphological changes in rat 3Y1 cells assessed as protrusions in cell membrane at 41 uM measured after 5 mins to 48 hrs by IncuCyte live cell imaging method.
In assay [3] the test system is 3Y1 cell line. The assay is described as follows: Induction of morphological changes in rat 3Y1 cells assessed as protrusions in cell membrane at 2.7 uM measured after 5 mins to 48 hrs by IncuCyte live cell imaging method.
Assay [4] deals with 3Y1 cell line. Nature of the assay: Induction of morphological changes in rat 3Y1 cells assessed as protrusions in cell membrane at 1.9 uM measured after 5 mins to 48 hrs by IncuCyte live cell imaging method.
The subject of assay [5] is 3Y1 cell line. The assay is described as follows: Induction of morphological changes in rat 3Y1 cells assessed as protrusions in cell membrane at 4.2 uM measured after 5 mins by IncuCyte live cell imaging method.
Assay [6] concerns 3Y1 cell line. Nature of the assay: Induction of morphological changes in rat 3Y1 cells assessed as protrusions in cell membrane at 0.05 uM measured after 5 mins to 48 hrs by IncuCyte live cell imaging method.

A word on the IC50: it is the concentration that gives 50% inhibition. `CO[C@H]([C@H](C)/C=C/N(C)C=O)[C@@H](C)C(=O)CC[C@H](C)[C@H](C[C@@H]1OC(=O)C[C@@H](O)C/C=C/C(=O)[C@H](C)[C@H](OC)c2coc(n2)-c2coc(n2)-c2coc(n2)/C=C/C[C@H](OC)[C@H]1C)OC` yielded an IC50 in the assay on 3Y1 cell line [1] of 7 nM.

Consider `C=C1[C@@H](C)[C@H]2[C@H](Cc3ccccc3)NC(=O)[C@]23OC(=O)/C=C/[C@@H](O)CCC[C@@H](C)C/C=C/[C@H]3[C@@H]1O`, for which, in the assay with 3Y1 cell line [2], the outcome was Active. In the case of `COC[C@@H](OC)C(=O)O[C@H](CC[C@H](C)[C@H](C[C@@H]1OC(=O)C[C@@H](O)C/C=C/C(=O)[C@H](C)[C@H](OC)c2coc(n2)-c2coc(n2)-c2coc(n2)/C=C/C[C@H](OC)[C@H]1C)OC)[C@H](C)[C@H](OC(C)=O)[C@H](C)/C=C/N(C)C=O`, the result in the assay on 3Y1 cell line [3] was Active. On to `C/C1=C/C(=O)O[C@@H]2C[C@@H](CC[C@H](C)/C=C\C=C\CC1)O[C@@](O)([C@@H]1CSC(=O)N1)C2`, for which, in the assay with 3Y1 cell line [4], the result was Active.

With `CO[C@@H]([C@@H](C)[C@@H](CC[C@H](C)[C@H](C[C@@H]1OC(=O)C[C@@H](O)C/C=C/C(=O)[C@H](C)[C@H](OC)c2coc(n2)-c2coc(n2)-c2coc(n2)/C=C/C[C@H](OC)[C@H]1C)OC)OC(=O)[C@@H](C)OC)[C@H](C)/C=C/N(C)C=O`, in the assay on 3Y1 cell line [5], the result was Active. In the assay on 3Y1 cell line [1], this compound displayed an IC50 of 7 nM. Take `CO[C@H]1C[C@H](CC[C@H](C)[C@H](O)[C@H](C)[C@H]2OC(=O)/C(C)=C/C[C@H](O)C[C@@H]3C=CC[C@@H](C[C@H](OC)[C@@H](C)[C@@H](O)C[C@@H](O)[C@H](C)[C@@H]([C@@H](C)[C@@H](O)[C@@H](C)CC[C@H]4C[C@H](OC)C[C@H](C)O4)OC(=O)/C(C)=C/C[C@H](O)C[C@@H]4C=CC[C@@H](C[C@H](OC)[C@@H](C)[C@@H](O)C[C@@H](O)[C@@H]2C)O4)O3)O[C@@H](C)C1`: the outcome in the assay on 3Y1 cell line [6] was Active.
